Measured values: US20250228865A1, “COMPOUNDS FOR ENHANCING READ THROUGH OF GENES CONTAINING PREMATURE TERMINATION CODONS AND METHODS FOR MAKING AND USING THE SAME” (Sanofi US Services Inc., priority 2022, published 2025)
“And” between values parts separate entries of the source, which are not always exact repeats. Equal values may be shown once.

Tests used:
[1] = tested on: recombinant human CFTR carrying the premature stop codon (PTC) mutation G542X; assay: CFTR-PTC mutant translation readthrough, Nanoluc tagged CFTR luminescence (G542X cell line); format: cell-based; conditions: 10 μM G418 alone; 48 hours; cell line (G542X or R1162X) not specified
Procedure, shortened: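 16HBE cells stably expressing Nanoluc-tagged human CFTR with G542X or R1162X, in medium with 3 μM VX-809, treated 48 h at 37 °C with compound (10-point, 2-fold, top 50 μM final) alone or with 10 μM G418. Live-cell Nanoluc luminescence normalised to a maximally effective G418 (125-250 μM).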

[2] = tested on: CFTR R1162X; assay: Functional CFTR channel activity, TECC-24 electrophysiology, 16HBE cells (CFTR R1162X readthrough); format: cell-based, human; conditions: no RTM, G418 10 uM
Protocol: (§1) 16HBE human bronchial epithelial cells were seeded onto Transwell 24-well filter inserts coated with human collagen type IV. Cells were seeded 7 days prior to functional testing at a density of 1.7×10^5 cells onto the “apical” chamber filter of the Transwell insert. Cells were grown as submerged cultures (200 μL apical/700 μL basolateral) in Minimal Essential Medium (MEM) containing 10% qualified Fetal Bovine Serum and 1% Penicillin/Streptomycin and incubated at 37° C. and 5% CO2. Growth media on cells was replenished with fresh media every 1-3 days prior to test agent treatment day. After 7 days in culture, the CFTR-mediated chloride (Cl^−) equivalent current (Ieq) of the 16HBE cells was recorded, which may typically form electrically tight epithelia with a transepithelial resistance (Rt) of 2000-6000 Ω·cm2 as described below. Forty-eight hours prior to electrophysiological measurements, fresh growth media containing the test agents was applied to both chambers separating filter bound epithelial monolayer.
(§2) On the day of electrophysiology studies, electrodes of a “Multi-(24-channel) transepithelial current clamp amplifier” (MTECC-24 (TECC-24 for short), EP Devices, Belgium) were soaked in an assay buffer (see below for composition) for at least 2 hours using 24-well Transwell plates without inserts. Cell culture media was replaced in the Transwell assay plates with assay buffer (see below) and the plates were mounted onto a custom-built automated robotic assay platform (Yamaha RCX240S controller) with heated plate holders set at 37° C. for 60 min. After equilibration, transepithelial potential difference (PD) and resistance (Rt) was monitoredat ˜5 min intervals using the TECC-24 transepithelial current clamp. Electrode potential differences were monitored for each pair of Ag/AgCl voltage electrodes by taking voltage measurements from a control (“blank”) plate with matching buffer solutions and 16HBE cells that were not treated with any test agent. PD values for each electrode pair were subtracted from the blank plate from that of the test plates at each time point. Ieq was calculated from the corrected PD values and Rt using Ohm's law. Ieq values were slope corrected to account for measurement drift over time using the equation: Slope corrected value=calculated Ieq−((time x slope)+y-intercept) with the slope and y-intercept calculated from the data points captured during the initial baseline period and following addition of the CFTR inhibitor.
(§3) The equivalent current (Ieq) traces associated with CFTR channel activation were plotted as baseline subtracted mean±standard deviation from 3-4 separate wells on the 24-well Transwell (n=3-4). There are 4 recording periods, with the first set of data points recorded baseline Ieq currents prior to sequential activation of available CFTR channels with forskolin (10 μM) and then in combination with potentiator VX-770/ivacaftor (1 μM). Recorded the last set of data points in the presence of CFTR inhibitor CFTRinh-172 (20 μM) to confirm that currents are mediated via activation of CFTR channels. The test agents and control/reference compounds were pre-diluted to 10-fold concentrations in assay buffer and added manually using a multi-channel pipette to both the basolateral and apical side of the membrane (test plates only). Employed CFTR-mediated changes in Ieq, (i.e. forskolin/VX-770 activated currents) to measure functional CFTR surface expression or treatment-related functional rescue of mutant CFTR.
(§4) The magnitude of test agent mediated enhancement of functional CFTR currents was calculated by comparing forskolin/VX-770 stimulated Ieq relative to baseline/CFTRinh-172 Ieq following 48 hour pretreatment with test agent(s) and normalizing to the forskolin/VX-770 stimulated Ieq determined following 48 hour pretreatment with a maximally effective concentration a reference control aminoglycoside agent (typically 110 μM G418). […]

[3] = tested on: CFTR G542X; assay: Functional CFTR channel activity, TECC-24 electrophysiology, 16HBE cells (CFTR G542X readthrough); format: cell-based, human; conditions: no RTM, G418 10 uM
Protocol: as §1, §2, §3, §4

[4] = eRF3 modulator (CC-90009) 10 uM

**Q.** Which “response (Nanoluc luminescence) relative to a maximally effective concentration of G418” value [1] does the source give for `CN[C@@H]1[C@@H](O)[C@@H](O[C@@H]2[C@@H](O)[C@H](O[C@H]3O[C@H]([C@@H](C)O)[C@@H](O)[C@H](O)[C@H]3N)[C@@H](N)C[C@H]2N)OC[C@]1(C)O` [Example G418, G418, reference compound] here?
**A.** The value was “approximately 10 % of the response observed with a maximally effective concentration of G418 (typically 125-250 μM)”.

**Q.** What about the “Currents (% of 110 μM G418 (Max effect))” value ([2]; eRF3 modulator (CC-90009) 1 uM) of the same molecule?
**A.** Its value is 110 % of 110 μM G418 (Max effect) and 95 % of 110 μM G418 (Max effect).

**Q.** What about the “Currents (% of 110 μM G418 (Max effect))” value [2, 4] of the same molecule?
**A.** The value was 130 % of 110 μM G418 (Max effect) and 139 % of 110 μM G418 (Max effect).

**Q.** What about the “Currents (% of 110 μM G418 (Max effect))” value ([3]; eRF3 modulator (CC-90009) 1 uM) of the same molecule?
**A.** The value was 130 % of 110 μM G418 (Max effect).

**Q.** And the “Currents (% of 110 μM G418 (Max effect))” value [3, 4]?
**A.** The value was 102 % of 110 μM G418 (Max effect).
